Experimental data: US7790899B2, “Synthesis of N-(4-fluorobenzyl)-N-(1-methylpiperidin-4-yl)-N′-(4-(2-methylpropyloxy)phenylmethyl)carbamide and its tartrate salt and crystalline forms” (ACADIA Pharmaceuticals, Inc., priority 2004, dated 2010)
Structures can show the parent of a compound that is named as a salt. Where two headings read alike, the source gives them in different places.

Tests used:
[1] = Particle size distribution; assay type: physicochemical
[2] = Stability test, thermal treatment (sealed ampoules, 100° C., HPLC purity); assay type: physicochemical; conditions: 1 week
Method: (§1) HPLC: HPLC measurements were carried out with a HP LC1090M, Column Symmetry C18, 3.0·150 mm.
The compounds of Examples 3(b) (polymorph A), 25 (polymorph B), and 36 (polymorph C) were placed in sealed ampoules and exposed for 1 week to 100° C. […] The products where analyzed by HPLC and the purity was detected to indicate chemical stability via decomposition.

[3] = Stability test, exposure to humidity (open containers, 60° C., 75% relative humidity); assay type: physicochemical; conditions: 1 week and 2 weeks
Method: as §1
The compounds of Examples 3(b) (polymorph A), 25 (polymorph B), and 36 (polymorph C) were placed in open containers and exposed 1 week and 2 weeks at 60° C. and 75% relative humidity. In polymorph A, a water content of 2.8% was detected and the HPLC purity was 80%.

[4] = Stability of the crystal forms (general findings); assay type: physicochemical
[5] = Water absorption and behaviour on exposure to relative humidity; assay type: physicochemical
[6] = Stability of crystalline Form C at 75% RH and 40° C.; assay type: physicochemical; parameters: key to Powder X-Ray Diffraction (PXRD): C = Conforms with Reference; conditions: 40° C./75% RH
Method: (§2) A first batch of crystalline Form C was exposed to 60% RH (relative humidity) at 25° C. for 12 months and a second batch was exposed to 75% RH at 40° C. for 6 months. No changes in polymorphic purities were observed under all the conditions tested, and Form C was the only polymorph detected. The batches were tested for appearance, Total Drug Assay, Related Substances, moisture, and the presence of Impurity D. Appearance of the bulk drug substance was evaluated by visual inspection for color homogeneity, foreign material and texture. Total Drug Assay was determined on an HPLC system with UV detection at 226 nm. A Waters XTerra RP185 μm (4.6×250 mm) column was used at 30° C. The mobile phase was acetonitrile: 5 mM ammonium acetate, pH 10.0 (46:54 v/v). The injection volume aws 20 μL. The run time was 30 min with a flow rate of 1.0 mL/min. Related Substances were analyzed utilizing gradient reversed-phase HPLC with UV detection at 226 nm. A Waters Symmetry C183.5 μm, (150×4.6 mm) column was used at 35° C. Mobile phase A was water with 0.1% TFA and mobile phase B was acetonitrile with 0.1% TFA. The injection volume was 20 μL. The run time was 35 min with a flow rate of 1.0 mL/min. Related substances were quantitated by peak area percent. Moisture was determined with a 737 Karl Fischer Coulometric titrator. The apparatus was operated using Hydranal-Coulomat AG and Hydranal standard-0.1% water check solution-Coulomat AG.

[7] = Stability of crystalline Form C at 60% RH and 25° C.; assay type: physicochemical; parameters: key to Powder X-Ray Diffraction (PXRD): C = Conforms with Reference; conditions: for Assay (Active Ingredient %) / Individual Related Substances (%) / Moisture, KF (%) / Powder X-Ray Diffraction (PXRD) / Product Appearance / Total Related Substances (%) / Impurity D: 25° C./60% RH
Method: as §2

[8] = Solubility statements in the description
[9] = Approximate solubility of the crystalline free base in solvents at room temperature; assay type: physicochemical

CC(C)COc1ccc(CNC(=O)N(Cc2ccc(F)cc2)C2CCN(C)CC2)cc1 [Example 56, N-(4-fluorobenzyl)-N-(1-methylpiperidin-4-yl)-N′-(4-(2-methylpropyloxy)phenylmethyl)carbamide hemi-tartrate]
diameter of about 10% of the particles [1]: ≤ 5 μm | diameter of about 50% of the particles [1]: ≤ 18 μm | diameter of about 90% of the particles [1]: ≤ 35 μm

CC(C)COc1ccc(CNC(=O)N(Cc2ccc(F)cc2)C2CCN(C)CC2)cc1 [Example 60, N-(4-fluorobenzyl)-N-(1-methylpiperidin-4-yl)-N′-(4-(2-methylpropyloxy)phenylmethyl)carbamide tartrate]
diameter of about 10% of the particles [1]: ≤ 9 μm | diameter of about 50% of the particles [1]: ≤ 30 μm | diameter of about 90% of the particles [1]: ≤ 55 μm

CC(C)COc1ccc(CNC(=O)N(Cc2ccc(F)cc2)C2CCN(C)CC2)cc1.CC(C)COc1ccc(CNC(=O)N(Cc2ccc(F)cc2)C2CCN(C)CC2)cc1.O=C(O)C(O)C(O)C(=O)O [Form B, N-(4-fluorobenzyl)-N-(1-methylpiperidin-4-yl)-N′-(4-(2-methylpropyloxy)phenylmethyl)carbamide hemi-tartrate]
HPLC purity after thermal treatment ([2]; listed as polymorph B): 28.3% | Change of crystal form after exposure to humidity [3]: transformed to polymorph C | HPLC purity after exposure to humidity ([3]; listed as polymorph B): 94.6% | water content after exposure to humidity ([3]; listed as polymorph B): 1.9% | Stability at ambient temperatures ([4]; ambient temperatures): stable | Water uptake when exposed to high humidity ([5]; above 80% relative humidity): considerable water uptake | Stability under ambient water partial pressures ([5]; relative humidities between 20% and 75%): sufficient stability

CC(C)COc1ccc(CNC(=O)N(Cc2ccc(F)cc2)C2CCN(C)CC2)cc1 [Form C, N-(4-fluorobenzyl)-N-(1-methylpiperidin-4-yl)-N′-(4-(2-methylpropyloxy)phenylmethyl)carbamide hemi-tartrate]
HPLC purity after thermal treatment [2]: 99.7% | State of the material after thermal treatment [2]: substantially unchanged | Assay (Active Ingredient %) ([6]; 0 M): 99.8% | Individual Related Substances (%) ([6]; 0 M): 0.06% | Moisture, KF (%) ([6]; 0 M): 0.3% | Powder X-Ray Diffraction (PXRD) ([6]; 0 M): C | Total Related Substances (%) ([6]; 0 M): 0.06% | Assay (Active Ingredient %) ([6]; 1 M): 99.8% | Individual Related Substances (%) ([6]; 1 M): 0.05% | Moisture, KF (%) ([6]; 1 M): <0.1% | Powder X-Ray Diffraction (PXRD) ([6]; 1 M): C | Total Related Substances (%) ([6]; 1 M): 0.05% | Assay (Active Ingredient %) ([6]; 3 M): 99.5% | Individual Related Substances (%) ([6]; 3 M): <0.05% | Moisture, KF (%) ([6]; 3 M): <0.1% | Total Related Substances (%) ([6]; 3 M): <0.05% | Assay (Active Ingredient %) ([6]; 6 M): 99.7% | Individual Related Substances (%) ([6]; 6 M): 0.23% | Moisture, KF (%) ([6]; 6 M): 0.1% | Powder X-Ray Diffraction (PXRD) ([6]; 6 M): C | Total Related Substances (%) ([6]; 6 M): 0.23% | Change of crystal form after exposure to humidity [3]: remained unchanged | HPLC purity after exposure to humidity [3]: 99.7% | Stability compared with all found crystal forms [4]: most stable form | Assay (Active Ingredient %) ([7]; 0 M): 99.8% | Individual Related Substances (%) ([7]; 0 M): 0.06% | Moisture, KF (%) ([7]; 0 M): 0.3% | Powder X-Ray Diffraction (PXRD) ([7]; 0 M): C | Product Appearance ([7]; 0 M): Conforms | Total Related Substances (%) ([7]; 0 M): 0.06% | Assay (Active Ingredient %) ([7]; 1 M): 99.8% | Individual Related Substances (%) ([7]; 1 M): 0.05% | Moisture, KF (%) ([7]; 1 M): <0.1% | Powder X-Ray Diffraction (PXRD) ([7]; 1 M): C | Product Appearance ([7]; 1 M): Conforms | Total Related Substances (%) ([7]; 1 M): 0.05% | Assay (Active Ingredient %) ([7]; 3 M): 99.7% | Individual Related Substances (%) ([7]; 3 M): <0.05% | Moisture, KF (%) ([7]; 3 M): <0.1% | Product Appearance ([7]; 3 M): Conforms | Total Related Substances (%) ([7]; 3 M): <0.05% | Assay (Active Ingredient %) ([7]; 6 M): 99.8% | Individual Related Substances (%) ([7]; 6 M): 0.06% | Moisture, KF (%) ([7]; 6 M): 0.2% | Powder X-Ray Diffraction (PXRD) ([7]; 6 M): C | Product Appearance ([7]; 6 M): Conforms | Total Related Substances (%) ([7]; 6 M): <0.06% | Assay (Active Ingredient %) ([7]; 9 M): 99.4% | Impurity D ([7]; 9 M): 0.2 | Individual Related Substances (%) ([7]; 9 M): <0.05% | Moisture, KF (%) ([7]; 9 M): <0.1% | Powder X-Ray Diffraction (PXRD) ([7]; 9 M): C | Product Appearance ([7]; 9 M): Conforms | Total Related Substances (%) ([7]; 9 M): <0.05% | Assay (Active Ingredient %) ([7]; 12 M): 99.1% | Impurity D ([7]; 12 M): 0.2 | Individual Related Substances (%) ([7]; 12 M): 0.05% | Moisture, KF (%) ([7]; 12 M): <0.1% | Powder X-Ray Diffraction (PXRD) ([7]; 12 M): C | Product Appearance ([7]; 12 M): Conforms | Total Related Substances (%) ([7]; 12 M): 0.05% | Changes in polymorphic purities ([7]; 60% RH at 25° C. for 12 months and 75% RH at 40° C. for 6 months): No changes | aqueous solubility ([8]; depends on the pH in aqueous environments): 50 to 100 mg/mL | Solubility in water or aqueous systems (in words) [8]: very high | Dynamic pour absorption experiments: water absorption [5]: does not absorb water | Stability in an open container ([5]; 75% relative humidity): stable | Deliquescence or hygroscopicity ([5]; about 95% relative humidity): no deliquescence or hygroscopicity | Water absorption ([5]; at about 95% relative humidity): about 1%

CC(C)COc1ccc(CNC(=O)N(Cc2ccc(F)cc2)C2CCN(C)CC2)cc1 [Form D, N-(4-fluorobenzyl)-N-(1-methylpiperidin-4-yl)-N′-(4-(2-methylpropyloxy)phenylmethyl)carbamide hemi-tartrate]
Stability in an open container ([5]; 53% relative humidity): stable

CC(C)COc1ccc(CNC(=O)N(Cc2ccc(F)cc2)C2CCN(C)CC2)cc1 [crystalline free base of formula I, N-(4-fluorobenzyl)-N-(1-methylpiperidin-4-yl)-N′-(4-(2-methylpropyloxy)phenylmethyl)carbamide]
solubility ([9]; acetonitrile): <50 mg/mL | solubility ([9]; ethyl acetate): <30 mg/mL | solubility ([9]; organic solvent or mixture, 1,4-dioxane, read-out: Solubility): 140 mg/mL | solubility ([9]; organic solvent or mixture, acetone, read-out: Solubility): 100 mg/mL | solubility ([9]; organic solvent or mixture, dichloromethane, read-out: Solubility): > 500 mg/mL | solubility ([9]; organic solvent or mixture, ethanol, read-out: Solubility): 260 mg/mL | solubility ([9]; organic solvent or mixture, isopropanol, read-out: Solubility): 100 mg/mL | solubility ([9]; organic solvent or mixture, methanol, read-out: Solubility): 170 mg/mL | solubility ([9]; organic solvent or mixture, tetrahydrofuran, read-out: Solubility): > 250 mg/mL | solubility ([9]; toluene): <70 mg/mL | solubility ([9]; water, read-out: Solubility): < 4 mg/mL

CC(C)COc1ccc(CNC(=O)N(Cc2ccc(F)cc2)C2CCN(C)CC2)cc1 [formula I, N-(4-fluorobenzyl)-N-(1-methylpiperidin-4-yl)-N′-(4-(2-methylpropyloxy)phenylmethyl)carbamide]
Solubility in water or aqueous systems (in words) [8]: low solubility

CC(C)COc1ccc(CNC(=O)N(Cc2ccc(F)cc2)C2CCN(C)CC2)cc1 [formula IV, N-(4-fluorobenzyl)-N-(1-methylpiperidin-4-yl)-N′-(4-(2-methylpropyloxy)phenylmethyl)carbamide hemi-tartrate]
Solubility in water or aqueous systems (in words) [8]: very good solubility
